# Reference: patent US12390451B2, “Small molecule inhibitor of the JAK family of kinases” (Janssen Pharmaceutica NV, priority 2021, dated 2025)
# Where two headings read alike, the source gives them in different places.
# Key:
# [1] = test system: IL-22/IL-6/IFNα-induced pSTAT-3 response; test: Ex vivo mouse colon explant model (IL-22/IL-6/IFNα) after oral dosing; type: in vivo, C57BL/6 mice; settings: for inhibition at 0.5 mg/kg: oral 0.5 mg/kg; for inhibition at 2.5 mg/kg: oral 2.5 mg/kg; for inhibition at 5 mg/kg: oral 5 mg/kg; for inhibition at 25 mg/kg: oral 25 mg/kg
# Description: To understand the potential of local, enteric-selective JAK inhibitors to inhibit STAT signaling in colon tissue, two pharmacokinetic/pharmacodynamic (PK/PD) studies were developed. The first involved the combined intraperitoneal administration of IL-12 and IL-18 in mice which induces a systemic inflammatory response resulting in activation of the JAK/STAT pathway in colonic tissue which can be monitored by robust phosphorylation of STAT3 three hours after challenge. The second PK/PD model involves the ex vivo stimulation of mouse colon tissue with a cocktail of cytokines (IL-22, IL-6, and IFNα), measuring the inhibition of STAT3 phosphorylation after oral dosing of compound of Formula I.
# In addition to the IL-12/IL-18 model described above, local efficacy of compound of Formula I was further established in a mouse cytokine mixture (IL-22/IL-6/IFNα) colon explant model. A combination of IL-22, IL-6 and IFNα induced a rapid and robust pSTAT-3 response in mouse colon explants ex vivo 1 hour post challenge. This study aimed at examining the dose response and duration of action of compound of Formula I on IL 22/IL 6/IFNα-induced pSTAT-3 response in an ex vivo mouse colon explant model.
# (§1) C57BL/6 mice (6 to 8 weeks old) were randomized by weight and assigned to various treatment groups for each study. Mice were dosed orally with indicated doses of compound of Formula I. At the termination of the study, blood was collected via cardiocentesis, serum and washed proximal colon was prepared for PK analysis.
# Distal colon explants (approximately 3 mm^2) were either untreated or treated with cytokines (IL 6, IL-22, IFNα at 100 ng/mL each). Following stimulation for 1 hour, tissue was snap-frozen for homogenization and assayed for pSTAT-3.
# [2] = Tissue distribution in mice after oral administration; type: in vivo, female C57Bl/6 mice; settings: oral 10 mg/kg; for concentration at 0.5 h / concentration at 1 h / concentration at 2 h / concentration at 3 h / concentration at 5 h / concentration at 7 h / concentration at 24 h: female, C57Bl/6, mouse
# Procedure: Limited tissue (liver, intestine) distribution studies were conducted in female C57Bl/6 mice ([…]) at 0.5, 1, 2, 3, 5, 7, and 24 hours following oral administration of compound of Formula 1 at a dose of 10 mg/kg formulated as a solution in 20% HP-β-CD. The plasma and the following tissues were harvested for compound concentration analysis: liver, whole ileum, and whole colon. The ileum and colon were flushed with saline prior to homogenization. Feces were collected over a period of 24 hours. All tissues (except plasma) were homogenized in sterile water and compound of Formula I concentrations were determined using LC-MS/MS. […] The concentration of compound of Formula I in feces was 125.6 μg at 24 hours post dose.
# [3] = molecular target: T1, JAK1/JAK3 (Homo sapiens, UniProt P23458+P52333); test: IL-21-induced pSTAT-3 in human whole blood; type: cell-based; settings: mean
# T1 construct: endogenous in cells; host or cells: human whole blood
# T1 sequence (P23458 whole entry): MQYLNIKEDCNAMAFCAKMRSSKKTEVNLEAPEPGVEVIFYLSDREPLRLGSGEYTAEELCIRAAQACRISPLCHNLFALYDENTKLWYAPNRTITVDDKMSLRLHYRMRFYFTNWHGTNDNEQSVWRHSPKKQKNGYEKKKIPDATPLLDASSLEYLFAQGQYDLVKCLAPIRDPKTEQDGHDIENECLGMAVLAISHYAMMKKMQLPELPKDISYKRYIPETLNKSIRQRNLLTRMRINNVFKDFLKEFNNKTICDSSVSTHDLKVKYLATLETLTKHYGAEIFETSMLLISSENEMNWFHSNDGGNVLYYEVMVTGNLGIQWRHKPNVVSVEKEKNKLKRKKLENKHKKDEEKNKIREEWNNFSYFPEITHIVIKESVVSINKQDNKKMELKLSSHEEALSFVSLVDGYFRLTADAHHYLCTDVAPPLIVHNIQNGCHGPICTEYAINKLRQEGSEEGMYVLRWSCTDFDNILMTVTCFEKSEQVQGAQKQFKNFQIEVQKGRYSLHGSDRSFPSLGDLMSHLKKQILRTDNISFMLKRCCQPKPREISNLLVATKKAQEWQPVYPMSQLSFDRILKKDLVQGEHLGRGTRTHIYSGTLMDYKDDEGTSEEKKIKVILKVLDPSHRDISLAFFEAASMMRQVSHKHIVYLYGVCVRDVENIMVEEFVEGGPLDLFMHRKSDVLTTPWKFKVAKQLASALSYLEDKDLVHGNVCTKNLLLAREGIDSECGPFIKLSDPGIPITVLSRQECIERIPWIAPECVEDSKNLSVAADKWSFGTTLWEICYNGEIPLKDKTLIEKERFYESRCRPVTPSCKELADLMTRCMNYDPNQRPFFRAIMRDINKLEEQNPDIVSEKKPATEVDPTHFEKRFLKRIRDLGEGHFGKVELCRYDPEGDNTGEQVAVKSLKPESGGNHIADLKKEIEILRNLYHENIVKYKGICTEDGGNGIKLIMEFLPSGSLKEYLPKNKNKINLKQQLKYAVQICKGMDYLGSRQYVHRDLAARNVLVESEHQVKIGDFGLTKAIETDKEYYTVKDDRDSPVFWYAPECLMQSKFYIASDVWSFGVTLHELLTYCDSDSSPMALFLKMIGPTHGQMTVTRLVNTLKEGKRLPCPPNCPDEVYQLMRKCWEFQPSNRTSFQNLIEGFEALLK
# T1 sequence (P52333 whole entry): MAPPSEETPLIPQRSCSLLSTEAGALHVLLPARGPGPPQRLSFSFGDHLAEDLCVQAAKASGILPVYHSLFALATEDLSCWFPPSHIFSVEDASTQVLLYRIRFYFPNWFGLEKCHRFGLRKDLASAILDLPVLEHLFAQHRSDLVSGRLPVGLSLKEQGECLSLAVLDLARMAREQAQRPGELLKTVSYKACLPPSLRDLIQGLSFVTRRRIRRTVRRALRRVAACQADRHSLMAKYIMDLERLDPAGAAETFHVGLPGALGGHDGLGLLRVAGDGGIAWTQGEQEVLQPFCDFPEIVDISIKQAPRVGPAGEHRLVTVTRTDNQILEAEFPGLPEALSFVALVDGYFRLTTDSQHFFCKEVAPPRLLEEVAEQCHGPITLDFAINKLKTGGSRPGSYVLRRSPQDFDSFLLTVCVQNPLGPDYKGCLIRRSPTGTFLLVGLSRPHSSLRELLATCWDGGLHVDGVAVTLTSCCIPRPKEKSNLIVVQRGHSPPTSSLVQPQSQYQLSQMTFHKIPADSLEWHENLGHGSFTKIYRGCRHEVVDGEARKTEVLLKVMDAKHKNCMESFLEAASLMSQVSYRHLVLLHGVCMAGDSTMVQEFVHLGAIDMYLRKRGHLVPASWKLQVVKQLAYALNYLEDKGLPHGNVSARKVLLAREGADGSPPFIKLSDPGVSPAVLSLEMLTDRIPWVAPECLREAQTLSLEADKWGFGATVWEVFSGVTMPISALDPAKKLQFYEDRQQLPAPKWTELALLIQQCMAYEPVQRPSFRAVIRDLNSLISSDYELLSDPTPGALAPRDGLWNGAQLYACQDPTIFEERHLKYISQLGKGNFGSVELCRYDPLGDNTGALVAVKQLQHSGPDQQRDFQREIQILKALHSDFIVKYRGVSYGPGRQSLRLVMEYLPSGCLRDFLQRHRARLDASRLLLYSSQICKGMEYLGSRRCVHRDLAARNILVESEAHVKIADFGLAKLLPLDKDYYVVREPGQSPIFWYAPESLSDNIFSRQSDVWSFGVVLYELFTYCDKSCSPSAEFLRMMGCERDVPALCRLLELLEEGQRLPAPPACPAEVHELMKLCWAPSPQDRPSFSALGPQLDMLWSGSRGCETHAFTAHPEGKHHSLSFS
# T1 sequence (Q9HBE5 20-538 partner): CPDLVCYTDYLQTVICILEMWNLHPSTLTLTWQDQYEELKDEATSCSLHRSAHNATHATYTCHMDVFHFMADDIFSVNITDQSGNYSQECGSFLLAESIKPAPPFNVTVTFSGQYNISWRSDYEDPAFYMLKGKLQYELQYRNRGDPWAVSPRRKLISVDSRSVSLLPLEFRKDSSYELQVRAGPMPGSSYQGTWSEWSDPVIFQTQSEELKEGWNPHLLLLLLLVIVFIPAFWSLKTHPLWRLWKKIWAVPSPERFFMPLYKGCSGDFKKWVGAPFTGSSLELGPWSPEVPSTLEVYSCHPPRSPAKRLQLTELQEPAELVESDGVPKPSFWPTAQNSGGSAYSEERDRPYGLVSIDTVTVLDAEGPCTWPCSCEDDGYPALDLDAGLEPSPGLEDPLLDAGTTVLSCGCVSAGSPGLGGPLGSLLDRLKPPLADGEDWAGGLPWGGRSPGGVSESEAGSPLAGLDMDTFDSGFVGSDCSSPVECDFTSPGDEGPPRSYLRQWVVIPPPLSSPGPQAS
# T1 sequence (P31785 23-369 partner): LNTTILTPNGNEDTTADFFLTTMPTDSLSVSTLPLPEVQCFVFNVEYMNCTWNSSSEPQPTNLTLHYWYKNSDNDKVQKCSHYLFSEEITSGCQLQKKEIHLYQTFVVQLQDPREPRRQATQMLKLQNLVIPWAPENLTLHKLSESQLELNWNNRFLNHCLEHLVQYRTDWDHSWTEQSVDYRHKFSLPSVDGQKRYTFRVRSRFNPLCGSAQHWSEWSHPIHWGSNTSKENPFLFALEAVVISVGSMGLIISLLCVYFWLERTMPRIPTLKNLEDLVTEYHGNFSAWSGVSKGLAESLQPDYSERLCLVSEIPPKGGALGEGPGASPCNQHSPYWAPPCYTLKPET
# Procedure: Compound of Formula I presents low levels of systemic exposure after oral administration. To understand the relationship between systemic exposure and target engagement in human studies, the inhibition of cytokine-induced pSTAT-3 in human whole blood was measured with such compound. In human whole blood, compound of Formula I in a concentration-dependent manner inhibited the JAK1, JAK2, JAK3, and Tyk2 homo- and heterodimers downstream of IFNα (JAK1/Tyk2), thrombopoietin (TPO) (JAK2/JAK2), and IL-21 (JAK1/JAK3) signaling.
# [4] = Serum and colon concentrations in explant studies SS-1 and SS-2; type: in vivo, C57BL/6 mice; settings: for concentration at 4 h: C57BL/6, mouse, po
# Procedure: as §1
# The high colonic and low systemic exposure observed for compound of Formula I implicate the role for colonic drug levels as the key driver of the observed pharmacology.
# Data are presented as mean±SEM; N=5/group. BLOQ, below limit of quantification.
# [5] = molecular target: T2, JAK1/Tyk2 (Mus musculus, UniProt P52332+Q9R117); test: IFNα-induced pSTAT-3 in murine whole blood; type: cell-based
# T2 construct: endogenous in cells; host or cells: murine whole blood
# Procedure: Mouse whole blood IC50 values were also generated to build an understanding of the relationship between systemic exposures and target engagement in murine models. In murine whole blood, the in vitro activity of compound of Formula I in the inhibition of IFNα-(JAK1/Tyk2), IL-21-(JAK1/3), and IL-12-(JAK2/Tyk2) induced pSTAT responses in murine whole blood was measured. […] No reliable IC50 could be reported for inhibition of IL-12 induced pSTAT-4 in murine whole blood.
# [6] = SS-1, mice, read-out: inhibition of IL-22/IL-6/IFNα-stimulated pSTAT-3 response in colon explants
# [7] = SS-1, mice, read-out: inhibition of basal pSTAT-3 response in colon explants
# [8] = SS-2, mice, read-out: inhibition of IL-22/IL-6/IFNα-stimulated pSTAT-3 in colon explants
# [9] = SS-2, mice, read-out: inhibition of basal pSTAT-3 in colon explants
# [10] = colon, mean ± SD, read-out: Colon concentration
# [11] = ileum, mean ± SD, read-out: Ileum concentration
# [12] = liver, mean ± SD, read-out: Liver concentration
# [13] = plasma, mean ± SD, read-out: Plasma concentration
smiles,measurement,setting,value
"CC(C)(O)CNC(=O)Cc1nc2cnc3[nH]ccc3c2n1[C@H]1CC[C@H](CC#N)CC1 [Compound of Formula I, 2-(1-((1r,4r)-4-(Cyanomethyl)cyclohexyl)-1,6-dihydroimidazo[4,5-d]pyrrolo[2,3-b]pyridin-2-yl)-N-(2-hydroxy-2-methylpropyl)acetamide]",inhibition at 0.5 mg/kg,[1]; [6],42.7%
same,inhibition at 0.5 mg/kg,[1]; [7],54.3%
same,inhibition at 2.5 mg/kg,[1]; [6],74.9%
same,inhibition at 2.5 mg/kg,[1]; [7],74.4%
same,inhibition at 5 mg/kg,[1]; [6],83.8%
same,inhibition at 5 mg/kg,[1]; [7],78.6%
same,inhibition at 25 mg/kg,[1]; [6],93.8%
same,inhibition at 25 mg/kg,[1]; [7],89.5%
same,inhibition at 0.5 mg/kg,[1]; [8],5.5%
same,inhibition at 0.5 mg/kg,[1]; [9],36.7%
same,inhibition at 2.5 mg/kg,[1]; [8],62%
same,inhibition at 2.5 mg/kg,[1]; [9],66.2%
same,inhibition at 5 mg/kg,[1]; [8],68.1%
same,inhibition at 5 mg/kg,[1]; [9],71.3%
same,inhibition at 25 mg/kg,[1]; [8],89.8%
same,inhibition at 25 mg/kg,[1]; [9],83.8%
same,concentration at 0.5 h,"[2]; colon, N = 2, read-out: Colon concentration",94.2 ng/g
same,concentration at 1 h,[2]; [10],5110 ng/g
same,concentration at 2 h,[2]; [10],6620 ng/g
same,concentration at 3 h,[2]; [10],7760 ng/g
same,concentration at 5 h,[2]; [10],8450 ng/g
same,concentration at 7 h,[2]; [10],3790 ng/g
same,concentration at 24 h,"[2]; colon, 24 h, mean ± SD, read-out: Colon concentration",195 ± 120 ng/g
same,concentration at 0.5 h,[2]; [11],73.8 ± 11.6 ng/g
same,concentration at 1 h,[2]; [11],22700 ng/g
same,concentration at 2 h,[2]; [11],12000 ng/g
same,concentration at 3 h,[2]; [11],16400 ng/g
same,concentration at 5 h,[2]; [11],3440 ng/g
same,concentration at 7 h,[2]; [11],2250 ng/g
same,concentration at 24 h,"[2]; ileum, 24 h, mean ± SD, read-out: Ileum concentration",87.6 ± 17.8 ng/g
same,concentration at 0.5 h,[2]; [12],34.8 ± 16.5 ng/g
same,concentration at 1 h,[2]; [12],189 ± 304 ng/g
same,concentration at 2 h,[2]; [12],84.5 ± 114 ng/g
same,concentration at 3 h,[2]; [12],23.3 ± 0.8 ng/g
same,concentration at 5 h,[2]; [12],16.8 ± 8.8 ng/g
same,concentration at 7 h,"[2]; liver, N = 2, read-out: Liver concentration",24 ng/g
same,concentration at 0.5 h,[2]; [13],3.5 ± 1.8 ng/mL
same,concentration at 1 h,[2]; [13],2.6 ± 0.9 ng/mL
same,concentration at 2 h,[2]; [13],2.3 ± 0.2 ng/mL
same,concentration at 3 h,[2]; [13],3.2 ± 1.7 ng/mL
same,concentration at 5 h,[2]; [13],2.1 ± 0.9 ng/mL
same,concentration at 7 h,[2]; [13],6 ± 4.9 ng/mL
same,Liver concentration,"[2]; 24 h, BLOQ (1 ng/mL)",BLOQ^b
same,Plasma concentration,"[2]; 24 h, BLOQ (1 ng/mL)",BLOQ^b
same,concentration in feces,[2]; 24 hours post dose,125.6 µg
same,IC50,[3],579 nM
same,concentration at 4 h,"[4]; colon, 0.25 mg/kg, SS-1, mice, 4 hours post oral dose 0.25 mg/kg, mean±SEM, read-out: Colon concentration",446 ± 51.5 ng/g
same,concentration at 4 h,"[4]; colon, 0.25 mg/kg, SS-2, mice, 4 hours post oral dose 0.25 mg/kg, mean±SEM, read-out: Colon concentration",262 ± 30.5 ng/g
same,concentration at 4 h,"[4]; colon, 2.5 mg/kg, SS-1, mice, 4 hours post oral dose 2.5 mg/kg, mean±SEM, read-out: Colon concentration",2840 ± 716 ng/g
same,concentration at 4 h,"[4]; colon, 2.5 mg/kg, SS-2, mice, 4 hours post oral dose 2.5 mg/kg, mean±SEM, read-out: Colon concentration",1320 ± 270 ng/g
same,concentration at 4 h,"[4]; colon, 5 mg/kg, SS-1, mice, 4 hours post oral dose 5 mg/kg, mean±SEM, read-out: Colon concentration",4630 ± 705 ng/g
same,concentration at 4 h,"[4]; colon, 5 mg/kg, SS-2, mice, 4 hours post oral dose 5 mg/kg, mean±SEM, read-out: Colon concentration",4670 ± 953 ng/g
same,concentration at 4 h,"[4]; colon, 25 mg/kg, SS-1, mice, 4 hours post oral dose 25 mg/kg, mean±SEM, read-out: Colon concentration",27500 ± 6130 ng/g
same,concentration at 4 h,"[4]; colon, 25 mg/kg, SS-2, mice, 4 hours post oral dose 25 mg/kg, mean±SEM, read-out: Colon concentration",22900 ± 4150 ng/g
same,concentration at 4 h,"[4]; serum, 5 mg/kg, SS-2, mice, 4 hours post oral dose 5 mg/kg, mean±SEM, read-out: Serum concentration",10.3 ± 6.9 nM
same,concentration at 4 h,"[4]; serum, 25 mg/kg, SS-1, mice, 4 hours post oral dose 25 mg/kg, mean±SEM, read-out: Serum concentration",4.9 ± 2.1 nM
same,concentration at 4 h,"[4]; serum, 25 mg/kg, SS-2, mice, 4 hours post oral dose 25 mg/kg, mean±SEM, read-out: Serum concentration",6.3 ± 2.9 nM
same,concentration at 4 h,"[4]; serum, SS-1 and SS-2, all oral doses, 4 hours post dose, read-out: systemic (serum) exposure",≤ 10.3 nM
same,Serum concentration,"[4]; SS-1, mice, 4 hours post oral dose 0.25 mg/kg, mean±SEM",BLOQ
same,Serum concentration,"[4]; SS-1, mice, 4 hours post oral dose 2.5 mg/kg, mean±SEM",BLOQ
same,Serum concentration,"[4]; SS-1, mice, 4 hours post oral dose 5 mg/kg, mean±SEM",BLOQ
same,Colon concentration,"[4]; SS-1, mice, 4 hours post oral dose 25 mg/kg, mean±SEM, 25 mg/kg",27488.1 ± 6128.6 ng/g
same,Serum concentration,"[4]; SS-2, mice, 4 hours post oral dose 0.25 mg/kg, mean±SEM",BLOQ
same,Serum concentration,"[4]; SS-2, mice, 4 hours post oral dose 2.5 mg/kg, mean±SEM",BLOQ
same,Colon concentration,"[4]; SS-2, mice, 4 hours post oral dose 25 mg/kg, mean±SEM, 25 mg/kg",22929.6 ± 4146.6 ng/g
same,IC50,[5],299 nM
